Reference: ChEMBL document CHEMBL5252596, “Synthesis and Cytotoxicity Evaluation of Betulin Cycloolefin Derivatives by Ruthenium-Catalyzed Ring-Closing Metathesis” (J Nat Prod, 2023)

Experiments:
L929 [1] = experiment: Induction of apoptosis in mouse L929 cells assessed as viable cells at 10 uM incubated for 24 hrs by Annexin V-PE staining based flow cytometry analysis (reference value: 98%); type: functional; conditions: read-out: Activity
L929 [2] = experiment: Induction of apoptosis in mouse L929 cells assessed as late apoptotic cells at 10 uM incubated for 24 hrs by Annexin V-PE staining based flow cytometry analysis (reference value: 0.53%); type: functional
L929 [3] = experiment: Cytotoxicity against mouse L929 cells assessed as reduction in dead cells at 10 uM incubated for 24 hrs by calcein-AM/PI staining based fluorescence microscopic analysis relative to control (reference value: 0.38%); type: toxicity, cell-based; design: scale not given: the % may be the effect or the level left; conditions: l929, 24 h
HeLa [4] = experiment: Induction of apoptosis in human HeLa cells assessed as late apoptotic cells at 10 uM incubated for 24 hrs by Annexin V-PE staining based flow cytometry analysis (reference value: 0.02%); type: functional
HeLa [5] = experiment: Induction of apoptosis in human HeLa cells assessed as viable cells at 10 uM incubated for 24 hrs by Annexin V-PE staining based flow cytometry analysis (reference value: 97.43%); type: functional; conditions: read-out: Activity
L929 [6] = experiment: Induction of apoptosis in mouse L929 cells assessed as early apoptotic cells at 10 uM incubated for 24 hrs by Annexin V-PE staining based flow cytometry analysis (reference value: 1.47%); type: functional
L929 [7] = experiment: Cytotoxicity against mouse L929 cells assessed as reduction in live cells at 10 uM incubated for 24 hrs by calcein-AM/PI staining based fluorescence microscopic analysis relative to control (reference value: 8.65%); type: toxicity, cell-based; design: scale not given: the % may be the effect or the level left; conditions: l929, 24 h
[8] = Cytotoxicity against mouse L929 cells assessed as cell growth inhibition at 10 uM incubated for 24 hrs by CCK-8 assay relative to control; type: toxicity, cell-based; conditions: read-out: Activity
HeLa [9] = experiment: Antiproliferative activity against human HeLa cells assessed as reduction in dead cells at 10 uM incubated for 24 hrs by calcein-AM/PI staining based fluorescence microscopic analysis relative to control (reference value: 0.15%); type: functional; design: scale not given: the % may be the effect or the level left
HeLa [10] = experiment: Antiproliferative activity against human HeLa cells assessed as cell growth inhibition at 10 uM incubated for 24 hrs by CCK-8 assay relative to control; type: functional; design: scale not given: the % may be the effect or the level left
L929 [11] = experiment: Induction of apoptosis in mouse L929 cells assessed as necrotic cells at 10 uM incubated for 24 hrs by Annexin V-PE staining based flow cytometry analysis (reference value: 0.00%); type: functional
HeLa [12] = experiment: Induction of apoptosis in human HeLa cells assessed as necrotic cells at 10 uM incubated for 24 hrs by Annexin V-PE staining based flow cytometry analysis (reference value: 0.00%); type: functional
HeLa [13] = experiment: Antiproliferative activity against human HeLa cells assessed as reduction in live cells at 10 uM incubated for 24 hrs by calcein-AM/PI staining based fluorescence microscopic analysis relative to control (reference value: 3.78%); type: functional; design: scale not given: the % may be the effect or the level left
HeLa [14] = experiment: Induction of apoptosis in human HeLa cells assessed as early apoptotic cells at 10 uM incubated for 24 hrs by Annexin V-PE staining based flow cytometry analysis (reference value: 2.55%); type: functional

SMILES	viability at 10 µM (L929 [1]) [%]	Activity (L929 [2]) [%]	Activity (L929 [3]) [%]	Activity (HeLa [4]) [%]	viability at 10 µM (HeLa [5]) [%]	Activity (L929 [6]) [%]	Activity (L929 [7]) [%]	inhibition at 24 h, 10 µM [8] [%]	Activity (HeLa [9]) [%]	Activity (HeLa [10]) [%]	Activity (L929 [11]) [%]	Activity (HeLa [12]) [%]	Activity (HeLa [13]) [%]	Activity (HeLa [14]) [%]
C=CCCCCCCCCC(=O)OC[C@]12CC[C@@H](C(=C)C)[C@@H]1[C@H]1CC[C@@H]3[C@@]4(C)CC[C@H](O)C(C)(C)[C@@H]4CC[C@@]3(C)[C@]1(C)CC2	82	4.55	1.77	18.58	79	0.75	4.65	47	0.69	55	1.29	1.41	2.03	0.98
C/C1=C/CCC(=O)OC[C@]23CC[C@@H]1[C@@H]2[C@H]1CC[C@@H]2[C@@]4(C)CC[C@H](O)C(C)(C)[C@@H]4CC[C@@]2(C)[C@]1(C)CC3	5.69	72.6	5.76	62.84	31.4	0.12	1.71	–	1.78	–	21.59	0.65	0.46	5.09
C/C1=C/CCCCCCCCC(=O)OC[C@]23CC[C@@H]1[C@@H]2[C@H]1CC[C@@H]2[C@@]4(C)CC[C@H](O)C(C)(C)[C@@H]4CC[C@@]2(C)[C@]1(C)CC3	77.2	5.04	2.1	26.22	70.5	12.6	3.67	–	0.91	–	5.18	0.61	1.29	2.66
C=CCCC(=O)OC[C@]12CC[C@@H](C(=C)C)[C@@H]1[C@H]1CC[C@@H]3[C@@]4(C)CC[C@H](O)C(C)(C)[C@@H]4CC[C@@]3(C)[C@]1(C)CC2	84.8	5.86	2.83	30.3	58.2	9.38	2.15	29	1.02	37	0	0.53	1.4	10.95
C=C(C)[C@@H]1CC[C@]2(CO)CC[C@]3(C)[C@H](CC[C@@H]4[C@@]5(C)CC[C@H](O)C(C)(C)[C@@H]5CC[C@]43C)[C@@H]12 [BETULIN]	96.5	0.61	0.79	0.03	87.8	2.94	5.19	55	0.53	58	0	0	2.8	12.16
